# Reference: patent publication US9113629B2, “4-amino-6-(4-substituted-phenyl)-picolinates and 6-amino-2-(4-substituted-phenyl)-pyrimidine-4-carboxylates and their use as herbicides” (DOW AGROSCIENCES LLC, priority 2013, dated 2015)
# Read-outs that look alike come from different tables or passages of the source.
# Experiments:
# [1] = system: Key Grass and Sedge Weeds as well as Grass Crops; test: Post-emergent Test II herbicidal activity (Table 6); format: in vivo; details: post-emergence, 336 h; for pest or weed control at 70 g/ha: 70 g ai/ha; for pest or weed control at 140 g/ha: 140 g ai/ha
# Outline: (§1)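 Plants grown in Metro-Mix 360 (pH 6.0–6.8) in a greenhouse (~15 h photoperiod, 23–29 °C day) to first or second true leaf stage, then sprayed with compound in acetone/DMSO/aqueous crop-oil-surfactant carrier at 187 L/ha by track sprayer. Injury visually scored 0–100% versus untreated plants after 14 d.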
# [2] = system: Key Broadleaf Weed and Crop Species; test: Post-emergent Test II herbicidal activity (Table 5); format: in vivo; details: post-emergence, 336 h, 14 days after application; for pest or weed control at 70 g/ha: application rate 70 g ai/ha; for pest or weed control at 140 g/ha: application rate 140 g ai/ha
# Outline: as §1
# [3] = CYPES: yellow nutsedge (Cyperus esculentus), read-out: Visual Growth Reduction (%) 14 Days After Application, CYPES
# [4] = DIGSA: crabgrass (Digitaria sanguinalis), read-out: Visual Growth Reduction (%) 14 Days After Application, DIGSA
# [5] = ECHCG: barnyardgrass (Echinochloa crus-galli), read-out: Visual Growth Reduction (%) 14 Days After Application, ECHCG
# [6] = ORYSA: rice (Oryza sativa), crop, read-out: Visual Growth Reduction (%) 14 Days After Application, ORYSA
# [7] = SETFA: giant foxtail (Setaria faberi), read-out: Visual Growth Reduction (%) 14 Days After Application, SETFA
# [8] = SORVU: grain sorghum (Sorghum vulgare), read-out: Visual Growth Reduction (%) 14 Days After Application, SORVU
# [9] = TRZSS (wheat, Triticum aestivum), crop, read-out: Visual Growth Reduction (%) 14 Days After Application, TRZSS
# [10] = ZEAMX: maize, corn (Zea mays), crop, read-out: Visual Growth Reduction (%) 14 Days After Application, ZEAMX
# [11] = ABUTH: velvetleaf (Abutilon theophrasti), read-out: Visual Growth Reduction (%) 14 Days After Application, ABUTH
# [12] = AMARE: redroot pigweed (Amaranthus retroflexus), read-out: Visual Growth Reduction (%) 14 Days After Application, AMARE
# [13] = BRSNN: oilseed-rape, canola (Brassica napus), read-out: Visual Growth Reduction (%) 14 Days After Application, BRSNN
# [14] = CHEAL: lambsquarters (Chenopodium album), read-out: Visual Growth Reduction (%) 14 Days After Application, CHEAL
# [15] = EPHHL: wild poinsettia (Euphorbia heterophylla), read-out: Visual Growth Reduction (%) 14 Days After Application, EPHHL
# [16] = HELAN: sunflower (Helianthus annuus), read-out: Visual Growth Reduction (%) 14 Days After Application, HELAN
# [17] = VIOTR: wild pansy (Viola tricolor), read-out: Visual Growth Reduction (%) 14 Days After Application, VIOTR
SMILES,"pest or weed control at 70 g/ha [1, 3]","pest or weed control at 140 g/ha [1, 3]","pest or weed control at 70 g/ha [1, 4]","pest or weed control at 140 g/ha [1, 4]","pest or weed control at 70 g/ha [1, 5]","pest or weed control at 140 g/ha [1, 5]","pest or weed control at 70 g/ha [1, 6]","pest or weed control at 140 g/ha [1, 6]","pest or weed control at 70 g/ha [1, 7]","pest or weed control at 140 g/ha [1, 7]","pest or weed control at 70 g/ha [1, 8]","pest or weed control at 140 g/ha [1, 8]","pest or weed control at 70 g/ha [1, 9]","pest or weed control at 140 g/ha [1, 9]","pest or weed control at 70 g/ha [1, 10]","pest or weed control at 140 g/ha [1, 10]","pest or weed control at 70 g/ha [2, 11]","pest or weed control at 140 g/ha [2, 11]","pest or weed control at 70 g/ha [2, 12]","pest or weed control at 140 g/ha [2, 12]",also measured
COC(=O)c1nc(-c2ccc(I)cc2)nc(N)c1OC [Compound 18],95 to 100%,95 to 100%,0 to 29%,30 to 44%,0 to 29%,45 to 59%,0 to 29%,0 to 29%,0 to 29%,0 to 29%,30 to 44%,0 to 29%,30 to 44%,30 to 44%,95 to 100%,95 to 100%,75 to 84%,75 to 84%,0 to 29%,0 to 29%,"pest or weed control at 70 g/ha [2, 13]: 75 to 84%; pest or weed control at 140 g/ha [2, 13]: 95 to 100%; pest or weed control at 70 g/ha [2, 14]: 85 to 94%; pest or weed control at 140 g/ha [2, 14]: 95 to 100%; pest or weed control at 70 g/ha [2, 15]: 95 to 100%; pest or weed control at 140 g/ha [2, 15]: 95 to 100%; pest or weed control at 70 g/ha [2, 16]: 95 to 100%; pest or weed control at 140 g/ha [2, 16]: 95 to 100%; pest or weed control at 70 g/ha [2, 17]: 0 to 29%; pest or weed control at 140 g/ha [2, 17]: 45 to 59%"
COC(=O)c1nc(-c2ccc(OC(F)F)c(F)c2F)c(F)c(N)c1Cl [Compound 103],0 to 29%,45 to 59%,0 to 29%,0 to 29%,0 to 29%,0 to 29%,0 to 29%,0 to 29%,0 to 29%,0 to 29%,0 to 29%,0 to 29%,0 to 29%,0 to 29%,0 to 29%,0 to 29%,45 to 59%,45 to 59%,0 to 29%,0 to 29%,"pest or weed control at 70 g/ha [2, 13]: 0 to 29%; pest or weed control at 140 g/ha [2, 13]: 30 to 44%; pest or weed control at 70 g/ha [2, 14]: 0 to 29%; pest or weed control at 140 g/ha [2, 14]: 85 to 94%; pest or weed control at 70 g/ha [2, 15]: 0 to 29%; pest or weed control at 140 g/ha [2, 15]: 0 to 29%; pest or weed control at 70 g/ha [2, 16]: 75 to 84%; pest or weed control at 140 g/ha [2, 16]: 75 to 84%; pest or weed control at 70 g/ha [2, 17]: 0 to 29%; pest or weed control at 140 g/ha [2, 17]: 0 to 29%"
